This is an account of results in BindingDB's records for doi:10.1021/jm00015a003 (Warner-Lambert, 1995).

The term IC50 denotes the concentration needed to halve the response being measured. Read a high IC50 as a need for much substance.

Square brackets hold non-standard residues; d marks the D form. Peptide text beside a SMILES is read from it. dDip = N[C@@H](C(=O)O)C(c1ccccc1)c1ccccc1; Dip = N[C@H](C(=O)O)C(c1ccccc1)c1ccccc1; Orn = NCCC[C@H](N)C(=O)O Some results are limits rather than exact numbers.

This assay is described as follows: Inhibition of ET-1 stimulated arachidonic acid release in rabbit renal vascular smooth muscle cells.
`CC[C@H](C)[C@H](NC(=O)[C@H](C)NC(=O)[C@H](CC(C)C)NC(=O)[C@@H](NC(C)=O)C(c1ccccc1)c1ccccc1)C(=O)N[C@H](C(=O)N[C@@H](Cc1c[nH]c2ccccc12)C(=O)O)[C@@H](C)CC` [(S)-2-[(2S,3S)-2-((2S,3S)-2-{(S)-2-[(S)-2-((S)-2-Acetylamino-3,3-diphenyl-propionylamino)-4-methyl-pentanoylamino]-propionylamino}-3-methyl-pentanoylamino)-3-methyl-pentanoylamino]-3-(1H-indol-3-yl)-propionic acid] (Ac-[Dip]LAIIW-OH) had an IC50 of 70 nM.
For the compound `CC[C@H](C)[C@H](NC(=O)[C@H](CC(=O)O)NC(=O)[C@@H](Cc1ccccc1)NC(=O)[C@@H](NC(C)=O)C(c1ccccc1)c1ccccc1)C(=O)N[C@H](C(=O)N[C@@H](Cc1c[nH]c2ccccc12)C(=O)O)[C@@H](C)CC` [(S)-3-[(R)-2-((S)-2-Acetylamino-3,3-diphenyl-propionylamino)-3-phenyl-propionylamino]-N-((1S,2S)-1-{(1S,2S)-1-[(S)-1-carboxy-2-(1H-indol-3-yl)-ethylcarbamoyl]-2-methyl-butylcarbamoyl}-2-methyl-butyl)-succinamic acid], the IC50 stood at 520 nM.
For `CC[C@H](C)[C@H](NC(=O)[C@H](CC(=O)O)NC(=O)[C@H](CC(C)C)NC(=O)[C@H](NC(C)=O)C(c1ccccc1)c1ccccc1)C(=O)N[C@H](C(=O)N[C@@H](Cc1c[nH]c2ccccc12)C(N)=O)[C@@H](C)CC` [(S)-3-[(S)-2-((S)-2-Acetylamino-3,3-diphenyl-propionylamino)-4-methyl-pentanoylamino]-N-((1S,2S)-1-{(1S,2S)-1-[(S)-1-carbamoyl-2-(1H-indol-3-yl)-ethylcarbamoyl]-2-methyl-butylcarbamoyl}-2-methyl-butyl)-succinamic acid] (Ac-[dDip]LDIIW-NH2), the IC50 turned out to be 6000 nM.
Take `CC[C@H](C)[C@H](NC(=O)[C@H](CC(=O)O)NC(=O)[C@H](CC(C)C)NC(=O)[C@H](NC(C)=O)C(c1ccccc1)c1ccccc1)C(=O)N[C@@H](Cc1ccccc1)C(=O)N[C@@H](Cc1c[nH]c2ccccc12)C(=O)O` [(S)-3-[(S)-2-((S)-2-Acetylamino-3,3-diphenyl-propionylamino)-4-methyl-pentanoylamino]-N-((1S,2S)-1-{(S)-1-[(S)-1-carboxy-2-(1H-indol-3-yl)-ethylcarbamoyl]-2-phenyl-ethylcarbamoyl}-2-methyl-butyl)-succinamic acid]: the IC50 is > 10000 nM.
`CC[C@H](C)[C@H](NC(=O)[C@H](CC(=O)O)NC(=O)[C@H](CC(C)C)NC(=O)[C@H](NC(C)=O)C(c1ccccc1)c1ccccc1)C(=O)N[C@@H](CC(C)C)C(=O)N[C@@H](Cc1c[nH]c2ccccc12)C(=O)O` [(S)-3-[(S)-2-((S)-2-Acetylamino-3,3-diphenyl-propionylamino)-4-methyl-pentanoylamino]-N-((1S,2S)-1-{(S)-1-[(S)-1-carboxy-2-(1H-indol-3-yl)-ethylcarbamoyl]-3-methyl-butylcarbamoyl}-2-methyl-butyl)-succinamic acid] returned an IC50 of 340 nM.
As to `CC[C@H](C)[C@H](NC(=O)[C@H](CC(=O)O)NC(=O)[C@H](CC(C)C)NC(=O)[C@@H](NC(C)=O)C(c1ccccc1)c1ccccc1)C(=O)N[C@@H](CCCCN)C(=O)N[C@@H](Cc1c[nH]c2ccccc12)C(=O)O` [(S)-3-[(S)-2-((S)-2-Acetylamino-3,3-diphenyl-propionylamino)-4-methyl-pentanoylamino]-N-((1S,2S)-1-{(S)-5-amino-1-[(S)-1-carboxy-2-(1H-indol-3-yl)-ethylcarbamoyl]-pentylcarbamoyl}-2-methyl-butyl)-succinamic acid] (Ac-[Dip]LDIKW-OH), the IC50 is > 10000 nM.
The value for `CC[C@H](C)[C@H](NC(=O)[C@@H](NC(=O)[C@H](CC(=O)O)NC(=O)[C@H](CC(C)C)NC(=O)[C@@H](NC(C)=O)C(c1ccccc1)c1ccccc1)C(C)C)C(=O)N[C@@H](Cc1c[nH]c2ccccc12)C(=O)O` [(S)-3-[(S)-2-((S)-2-Acetylamino-3,3-diphenyl-propionylamino)-4-methyl-pentanoylamino]-N-((S)-1-{(1S,2S)-1-[(S)-1-carboxy-2-(1H-indol-3-yl)-ethylcarbamoyl]-2-methyl-butylcarbamoyl}-2-methyl-propyl)-succinamic acid] (Ac-[Dip]LDVIW-OH) was 29 nM.
The value for `CC[C@H](C)[C@H](NC(=O)[C@H](Cc1ccccc1)NC(=O)[C@H](CC(=O)O)NC(=O)[C@H](CC(C)C)NC(=O)[C@@H](NC(C)=O)C(c1ccccc1)c1ccccc1)C(=O)N[C@@H](Cc1c[nH]c2ccccc12)C(=O)O` [(S)-3-[(S)-2-((S)-2-Acetylamino-3,3-diphenyl-propionylamino)-4-methyl-pentanoylamino]-N-((S)-1-{(1S,2S)-1-[(S)-1-carboxy-2-(1H-indol-3-yl)-ethylcarbamoyl]-2-methyl-butylcarbamoyl}-2-phenyl-ethyl)-succinamic acid] (Ac-[Dip]LDFIW-OH) was 160 nM.
Compound `CC[C@H](C)[C@H](NC(=O)[C@H](C)NC(=O)[C@H](CC(=O)O)NC(=O)[C@H](CC(C)C)NC(=O)[C@H](NC(C)=O)C(c1ccccc1)c1ccccc1)C(=O)N[C@@H](Cc1c[nH]c2ccccc12)C(=O)O` [(S)-3-[(S)-2-((S)-2-Acetylamino-3,3-diphenyl-propionylamino)-4-methyl-pentanoylamino]-N-((S)-1-{(1S,2S)-1-[(S)-1-carboxy-2-(1H-indol-3-yl)-ethylcarbamoyl]-2-methyl-butylcarbamoyl}-ethyl)-succinamic acid] had a half-maximal inhibitory concentration (IC50) of 420 nM.
The value for `CC[C@H](C)[C@H](NC(=O)[C@H](CCCCN)NC(=O)[C@H](CC(=O)O)NC(=O)[C@H](CC(C)C)NC(=O)[C@H](NC(C)=O)C(c1ccccc1)c1ccccc1)C(=O)N[C@@H](Cc1c[nH]c2ccccc12)C(=O)O` [(S)-3-[(S)-2-((S)-2-Acetylamino-3,3-diphenyl-propionylamino)-4-methyl-pentanoylamino]-N-((S)-5-amino-1-{(1S,2S)-1-[(S)-1-carboxy-2-(1H-indol-3-yl)-ethylcarbamoyl]-2-methyl-butylcarbamoyl}-pentyl)-succinamic acid] was > 10000 nM; that for `CC[C@H](C)[C@H](NC(=O)[C@H](CC(=O)O)NC(=O)[C@H](CC(C)C)NC(=O)[C@H](NC(C)=O)C(c1ccccc1)c1ccccc1)C(=O)N[C@H](C(=O)N[C@@H](Cc1ccccc1)C(=O)O)[C@@H](C)CC` [(S)-3-[(S)-2-((S)-2-Acetylamino-3,3-diphenyl-propionylamino)-4-methyl-pentanoylamino]-N-{(1S,2S)-1-[(1S,2S)-1-(1-carboxy-2-phenyl-ethylcarbamoyl)-2-methyl-butylcarbamoyl]-2-methyl-butyl}-succinamic acid] was > 10000 nM; that for `CC[C@H](C)[C@H](NC(=O)[C@H](CC(=O)O)NC(=O)[C@H](CCCN)NC(=O)[C@@H](NC(C)=O)C(c1ccccc1)c1ccccc1)C(=O)N[C@H](C(=O)N[C@@H](Cc1c[nH]c2ccccc12)C(=O)O)[C@@H](C)CC` [(S)-3-[(S)-2-((S)-2-Acetylamino-3,3-diphenyl-propionylamino)-5-amino-pentanoylamino]-N-((1S,2S)-1-{(1S,2S)-1-[(S)-1-carboxy-2-(1H-indol-3-yl)-ethylcarbamoyl]-2-methyl-butylcarbamoyl}-2-methyl-butyl)-succinamic acid] (Ac-[Dip][Orn]DIIW-OH) was 30 nM.
As to `CC[C@H](C)[C@H](NC(=O)[C@H](CC(=O)O)NC(=O)[C@H](CCCNC(=N)N)NC(=O)[C@H](NC(C)=O)C(c1ccccc1)c1ccccc1)C(=O)N[C@H](C(=O)N[C@@H](Cc1c[nH]c2ccccc12)C(=O)O)[C@@H](C)CC` [(S)-3-[(S)-2-((S)-2-Acetylamino-3,3-diphenyl-propionylamino)-5-guanidino-pentanoylamino]-N-((1S,2S)-1-{(1S,2S)-1-[(S)-1-carboxy-2-(1H-indol-3-yl)-ethylcarbamoyl]-2-methyl-butylcarbamoyl}-2-methyl-butyl)-succinamic acid], half-maximal inhibition (IC50) was put at 14 nM.
The compound `CC[C@H](C)[C@H](NC(=O)[C@H](CC(=O)O)NC(=O)[C@H](CCC(=O)O)NC(=O)[C@H](NC(C)=O)C(c1ccccc1)c1ccccc1)C(=O)N[C@H](C(=O)N[C@@H](Cc1c[nH]c2ccccc12)C(=O)O)[C@@H](C)CC` [(S)-4-((S)-2-Acetylamino-3,3-diphenyl-propionylamino)-4-[(S)-2-carboxy-1-((1S,2S)-1-{(1S,2S)-1-[(S)-1-carboxy-2-(1H-indol-3-yl)-ethylcarbamoyl]-2-methyl-butylcarbamoyl}-2-methyl-butylcarbamoyl)-ethylcarbamoyl]-butyric acid] (Ac-[dDip]EDIIW-OH) gave an IC50 of 130 nM.
For `CC[C@H](C)[C@H](NC(=O)[C@H](CCC(=O)O)NC(=O)[C@H](CC(C)C)NC(=O)[C@@H](NC(C)=O)C(c1ccccc1)c1ccccc1)C(=O)N[C@H](C(=O)N[C@@H](Cc1c[nH]c2ccccc12)C(=O)O)[C@@H](C)CC` [(S)-4-[(S)-2-((S)-2-Acetylamino-3,3-diphenyl-propionylamino)-4-methyl-pentanoylamino]-4-((1S,2S)-1-{(1S,2S)-1-[(S)-1-carboxy-2-(1H-indol-3-yl)-ethylcarbamoyl]-2-methyl-butylcarbamoyl}-2-methyl-butylcarbamoyl)-butyric acid] (Ac-[Dip]LEIIW-OH), the IC50 is 430 nM.
The value for `CC[C@H](C)[C@H](NC(=O)[C@H](CCC(=O)O)NC(=O)[C@H](CC(=O)O)NC(=O)[C@H](CC(C)C)NC(=O)[C@H](NC(C)=O)C(c1ccccc1)c1ccccc1)C(=O)N[C@@H](Cc1c[nH]c2ccccc12)C(=O)O` [(S)-4-{(S)-2-[(S)-2-((S)-2-Acetylamino-3,3-diphenyl-propionylamino)-4-methyl-pentanoylamino]-3-carboxy-propionylamino}-4-{(1S,2S)-1-[(S)-1-carboxy-2-(1H-indol-3-yl)-ethylcarbamoyl]-2-methyl-butylcarbamoyl}-butyric acid] (Ac-[dDip]LDEIW-OH) was 450 nM.
